Measured values from ChEMBL document CHEMBL3603785, “Discovery and Optimization of 4-(8-(3-Fluorophenyl)-1,7-naphthyridin-6-yl)transcyclohexanecarboxylic Acid, an Improved PDE4 Inhibitor for the Treatment of Chronic Obstructive Pulmonary Disease (COPD)” (J Med Chem, 2015).
Converted amounts (≈) assume the structure as drawn.

How the values were obtained:
[1] = Thermodynamic aqueous solubility of the compound at pH 6.8; format: physicochemical; conditions: for solubility thermodynamic: aqueous, read-out: Therm_solubility; for Therm_solubility: buffer
[2] = High throughput kinetic solubility of the compound at pH 6.8; format: physicochemical; conditions: buffer, read-out: Kinetic_solubility
Rattus norvegicus [3] = experiment: AUC in rat at 4.2 uM/kg, po; format: ADME, organism-based; conditions: in vivo
Rattus norvegicus [4] = experiment: Oral bioavailability in rat at 2.1 uM/kg; format: ADME, organism-based; conditions: in vivo
Rattus norvegicus [5] = experiment: AUC in rat at 2.1 uM/kg, po; format: ADME, organism-based; conditions: in vivo
[6] = target: 3',5'-cyclic-AMP phosphodiesterase 4D (Homo sapiens, UniProt Q08499); experiment: Inhibition of human PDE4D
Rattus norvegicus [7] = experiment: Half life in rat at 1.05 uM/kg, iv; format: ADME, organism-based; conditions: in vivo
Rattus norvegicus [8] = experiment: Volume of distribution at steady state in rat at 1.05 uM/kg, iv; format: ADME, organism-based; conditions: in vivo
Rattus norvegicus [9] = experiment: AUC in po dosed rat; format: ADME, organism-based; conditions: in vivo
Rattus norvegicus [10] = experiment: Half life in po dosed rat; format: ADME, organism-based; conditions: in vivo

Chain of 3',5'-cyclic-AMP phosphodiesterase 4D (Q08499 whole entry): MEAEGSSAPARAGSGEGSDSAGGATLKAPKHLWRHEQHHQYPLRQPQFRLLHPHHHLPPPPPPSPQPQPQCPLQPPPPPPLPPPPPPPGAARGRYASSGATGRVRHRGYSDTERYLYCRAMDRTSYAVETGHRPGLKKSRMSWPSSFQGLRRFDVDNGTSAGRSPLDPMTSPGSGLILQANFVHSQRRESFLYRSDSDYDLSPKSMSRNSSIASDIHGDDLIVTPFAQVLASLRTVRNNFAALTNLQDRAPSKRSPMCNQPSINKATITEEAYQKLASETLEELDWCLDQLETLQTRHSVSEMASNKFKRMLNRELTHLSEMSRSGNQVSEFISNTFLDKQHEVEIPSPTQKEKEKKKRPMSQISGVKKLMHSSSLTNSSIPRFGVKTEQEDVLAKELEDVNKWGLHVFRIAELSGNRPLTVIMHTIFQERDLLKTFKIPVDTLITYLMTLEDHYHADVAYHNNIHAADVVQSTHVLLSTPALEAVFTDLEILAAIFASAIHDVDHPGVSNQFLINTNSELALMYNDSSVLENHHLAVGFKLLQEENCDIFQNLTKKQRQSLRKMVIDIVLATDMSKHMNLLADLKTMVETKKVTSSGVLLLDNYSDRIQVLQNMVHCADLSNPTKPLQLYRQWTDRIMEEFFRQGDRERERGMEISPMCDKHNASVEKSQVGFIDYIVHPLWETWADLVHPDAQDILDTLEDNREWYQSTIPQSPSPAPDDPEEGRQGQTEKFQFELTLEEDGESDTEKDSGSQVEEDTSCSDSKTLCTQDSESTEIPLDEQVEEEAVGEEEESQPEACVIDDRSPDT

solubility thermodynamic [1] [µg/mL] | solubility kinetic [2] [µg/mL] | IC50 [6] [nM] | Compound | other results
> 4 | 20 (≈ 55.8 µM) |  | N#Cc1cccc(-c2nc(N3CCC(C(=O)O)CC3)cc3cccnc23)c1 | F (Rattus norvegicus [4]): 157.5%; AUC (Rattus norvegicus [5]): 2768 µM/min
 | 20 (≈ 55.2 µM) |  | COc1cccc(-c2nc([C@H]3CC[C@H](C(=O)O)CC3)cc3cccnc23)c1 | Therm_solubility [1]: 0.15 µg/mL
 | 10 (≈ 28.5 µM) |  | O=C(O)[C@H]1CC[C@H](c2cc3cccnc3c(-c3cccc(F)c3)n2)CC1 | Therm_solubility [1]: 0.92 µg/mL; AUC (Rattus norvegicus [5]): 4408 µM/min
 | 20 (≈ 56 µM) |  | N#Cc1cccc(-c2nc([C@H]3CC[C@H](C(=O)O)CC3)cc3cccnc23)c1 | Therm_solubility [1]: 0.43 µg/mL; AUC (Rattus norvegicus [3]): 112900 µM/min
0.14 (≈ 0.382 µM) | 100 (≈ 273 µM) | 30 | O=C(O)[C@H]1CC[C@H](c2cc3cccnc3c(-c3cccc(Cl)c3)n2)CC1 | 
 |  | 8 | N#Cc1cccc(-c2nc(N3CCC(C(N)=O)CC3)cc3cccnc23)c1 | t1/2 (Rattus norvegicus [7]): 8 min; Vdss (Rattus norvegicus [8]): 2.9 L/kg

More lines, now with the values behind:

Compound | solubility thermodynamic [1] [µg/mL] | solubility kinetic [2] [µg/mL] | IC50 [6] [nM] | other results
O=C(O)C1CCN(c2cc3cccnc3c(-c3cccc(F)c3)n2)CC1 | > 4 | > 70 |  | AUC (Rattus norvegicus [3]): 3919 µM/min
N#Cc1cccc(-c2nc(N3CCC(CO)CC3)cc3cccnc23)c1 |  |  | 13 | 
N#Cc1cccc(-c2nc(N3CCC(O)CC3)cc3cccnc23)c1 |  |  | 22 | 
N#Cc1cccc(-c2nc(N3CCOCC3)cc3cccnc23)c1 |  |  | 3 | 
O=C(O)c1ccc(-c2cc3cccnc3c(-c3ccc4nonc4c3)n2)cc1 | 2.3 (≈ 6.24 µM) |  |  | AUC (Rattus norvegicus [9]): 523 µM/min; t1/2 (Rattus norvegicus [10]): 12 min
